Experimental data from BindingDB's records for doi:10.1016/0960-894X(96)00456-8 (1996).

Test: Compound was evaluated for inhibitory activity against herpes simplex type 2 protease (HSV-2 pr).

IC50 [nM] | SMILES
700 | O=C1OC(c2ccccc2)=N[C@@]12C[C@@H]2c1ccccc1 [(1R,3R)-1,5-Diphenyl-6-oxa-4-aza-spiro[2.4]hept-4-en-7-one]
1200 | CC(=O)Oc1ccc([C@H]2C[C@@]23N=C(c2ccccc2)OC3=O)cc1 [Acetic acid 4-((1R,3R)-7-oxo-5-phenyl-6-oxa-4-aza-spiro[2.4]hept-4-en-1-yl)-phenyl ester]
